# Data taken from US20250043299A1, “POINT MUTATIONS THAT BOOST AROMATIC AMINO ACID PRODUCTION AND CO2 ASSIMILATION IN PLANTS” (Wisconsin Alumni Research Foundation, priority 2021, published 2025).
# Tested on: sota mutant DHS enzymes
# Test: DHS enzyme assay, sota mutant enzymes compared with corresponding WT enzymes
# Format: biochemical, Arabidopsis thaliana
# Protocol: To generate recombinant DHS proteins the pET28a vectors carrying the A. thaliana DHS1 (AtDHS1), AtDHS2, or AtDHS3 WT sequence without the predicted plastid transit peptide (amino acid residues; 49-525, 34-507, and 52-527, respectively) were expressed in E. coli Rosetta-2 cells and purified using Ni-affinity chromatography, exactly as was conducted previously (9). To generate DHS proteins with individual sota mutations via site-directed mutagenesis, these pET28a plasmid templates were diluted by 500-fold, mixed with 0.04 U/μL Phusion DNA polymerase (Thermo Scientific), 0.2 mM deoxynucleoside triphosphates (dNTPs), 1× Phusion reaction buffer (Thermo Scientific), and 0.5 μM forward and reverse mutagenesis primers (Table 10). The PCR reaction was run using the following protocol: 98° C. for 30 s followed by 20 cycles of 10 s at 98° C., 20 s at 70° C., 4.5 min at 72° C. with a final extension at 72° C. for 10 min. […]
# The DHS enzyme assays were conducted using the colorimetric method that we recently described (9). […] The absorbance of the pink supernatant was read at 549 nm with the microplate reader (Infinite 200 PRO, TECAN) to calculate DAHP production with the molar extinction coefficient at 549 nm (ε=549 nm) of 4.5×10^4 M^−1 cm^−1. […]
smiles,measurement,value
"O=C(O)C(=O)Cc1ccc(O)cc1 [HPP, 4-Hydroxyphenylpyruvate]",increase of IC50 in sota mutant enzymes over corresponding WT enzymes,up to 7 fold
